From US8278311B2, “Substituted pyrimidine derivatives” (Abbott Laboratories, priority 2008, dated 2012)
Read-outs that look alike come from different tables or passages of the source.

Tests used:
[1] = target: T1, histamine H4 receptor (Homo sapiens, UniProt Q9H3N8); experiment: in vitro assay of histamine H4 activity using FLIPR-Ca+2 flux; type: cell-based; conditions: HEK-293 cells stably expressing histamine H4 receptor and Gαqi5, Fluo-4; Kb for antagonists and inverse agonists, EC50 for partial agonists
T1 construct: expressed in transfected cells
From the text: There are many methods available to show the effectiveness of compounds as histamine H4 receptor ligands. Histamine H4 receptors from mammalian species have been cloned. Methods to clone, express, and assess the potency and functional activity of such cloned genes are well known to those skilled in the art of molecular biology. Examples of methods of cloning and expressing histamine H4 receptors, and of assessing the potency and functional activity are described in Nguyen, et al. Molecular Pharmacology (2001) vol. 59 pp. 427-433; Zhu, et al. Molecular Pharmacology (2001) vol. 59 pp. 434-441; Coge, et al., Biochemical and Biophysical Research Communications (2001) vol. 284, pp. 301-309; Liu, et al. Molecular Pharmacology (2001) vol. 59 pp. 420-426; Liu, et al. Journal of Pharmacology and Experimental Therapeutics (2001) v. 299, pp. 121-130; and Thurmond, et al. Journal of Pharmacology and Experimental Therapeutics (2004) v. 309, pp. 404-413. In the present case, to determine the potency and effectiveness of representative compounds of this invention as histamine-H4 receptor ligands (H4 receptor ligands), the following tests were conducted according to previously described methods (see Esbenshade, et al., Biochemical Pharmacology (2004), vol. 68, pp. 933-945, and in Krueger, et al., Journal of Pharmacology and Experimental Therapeutics (2005) v. 314, pp. 271-281): histamine H4 receptors were cloned and stably expressed in HEK-293 (human embryonic kidney) cells coexpressing a Gαqi5. Before testing, cells are loaded with a Ca+^2 sensitive fluorescent dye, in this case Fluo-4 (Invitrogen, Carlsbad, Calif.). In the case of partial agonist or agonist ligands, addition of compound to the cells leads to the increase in intracellular Ca^+2 which is detected by FLIPR (Fluorescence Imaging Plate Reader; Molecular Devices, Sunnyvale, Calif.) technology. In a similar manner, compounds that are antagonists or inverse agonists, block the increase in fluorescence induced by the full histamine H4 agonist histamine, and partial agonists reduce the amount of fluorescence induced by the full histamine H4 agonist histamine. The fluorescence intensities measured before addition of the test compound are subtracted from the fluorescence intensities at later time points. Peak response values determined at each concentration of ligand are expressed as a percentage of the response obtained with the full agonist histamine. Concentration versus response data are analyzed to obtain compound potency as Kb values for antagonists and inverse agonists and as EC50 values for partial agonists.

[2] = target: T1, histamine H4 receptor; experiment: 3H-histamine competition binding assay
Experimental: The potency of compounds of the invention in displacing ^3H-histamine in competition binding assays is assessed by methods described in Esbenshade, et al., Biochemical Pharmacology (2004), vol. 68, pp. 933-945. In this assay, membranes were prepared from HEK-293 cells transiently transfected with the pClNeo expression vector harboring the histamine H4 receptor by homogenization of the cells on ice in TE buffer (50 mM Tris-HCl buffer, pH 7.4, containing 5 mM EDTA), 1 mM benzamidine, 2 μg/mL aprotinin, 1 μg/mL leupeptin, and 1 μg/mL pepstatin. The homogenate was centrifuged at 40,000 g for 20 minutes at 4° C. This step was repeated, and the resulting pellet was resuspended in TE buffer. Aliquots were frozen at −70° C. until needed. On the day of assay, membranes were thawed and diluted with TE buffer. Competition radioligand binding assays were performed with increasing concentrations of test compound in the presence of [^3H]-histamine incubated at 25° C. for 1 hour in a total volume of 0.5 mL of 50 mM Tris, 5 mM EDTA, pH 7.4. All binding reactions were terminated by filtration under vacuum onto polyethylenimine (0.3%) presoaked Unifilters (PerkinElmer Life Sciences) or Whatman GF/B filters (Whatman, Clifton, N.J.) followed by three brief washes with 4 mL of ice-cold TE buffer. Bound radiolabel was determined by liquid scintillation counting. For all of the radioligand competition binding assays, IC50 values and Hill slopes were determined by Hill transformation of the data and Ki values were determined by the Cheng-Prusoff equation. The following table of representative histamine H4 receptor ligands is provided, along with potency values: […]

[3] = membranes of HEK-293 cells transiently transfected with histamine H4 receptor, [3H]-histamine, 25° C., 1 hour, read-out: Binding assay Potency (Ki)

Potency [1] [nM] | Ki [2, 3] [nM] | SMILES | Ki [2] [nM]
16 | – | Nc1nc2c(c(N3CCCNCC3)n1)CCC1=C2C2CCCCC2O1 (stereo not shown) [Example 9, 4-(1,4-diazepan-1-yl)-5,6,7a8,9,10,11,11a-octahydro[1]benzofuro[2,3-h]quinazolin-2-amine] | –
3.2 | 1 | CCNC1CN(c2nc(N)nc3c2CC[C@@H]2CCCC[C@@H]32)C1.O=C(O)C(F)(F)F.O=C(O)C(F)(F)F (relative stereo) [Example 15, trans-4-[3-(ethylamino)azetidin-1-yl]-5,6,6a,7,8,9,10,10a-octahydrobenzo[h]quinazolin-2-amine bis(trifluoroacetate)] | –
21.9 | 5.5 | CN[C@@H]1CCN(c2nc(N)nc3c2CCCC2C4CCC(CC4)C32)C1 (stereo partly drawn) [Example 28, 4-[(3R)-3-(methylamino)pyrrolidin-1-yl]-6,7,7a,8,9,10,11,11a-octahydro-5H-8,11-ethanobenzo[6,7]cyclohepta[1,2-d]pyrimidin-2-amine] | –
3.3 | 1.8 | Nc1nc2c(c(N3CCNCC3)n1)CC[C@@H]1CCCC[C@H]21 (relative stereo) [Example 13, cis-4-piperazin-1-yl-5,6,6a,7,8,9,10,10a-octahydrobenzo[h]quinazolin-2-amine] | –
1260 | – | CC(C)N1CCCN(c2nc(N)nc3c2CCC2=C3C3CCCCC3O2)CC1 (stereo not shown) [Example 10, 4-(4-isopropyl-1,4-diazepan-1-yl)-5,6,7a,8,9,10,11,11a-octahydro[1]benzofuro[2,3-h]quinazolin-2-amine] | –
1.4 | 2.6 | CN[C@@H]1CCN(c2nc(N)nc3c2CC[C@@H]2CCCC[C@@H]32)C1 (mixture of isomers) [Example 16, trans-4-[(3R)-3-(methylamino)pyrrolidin-1-yl]-5,6,6a,7,8,9,10,10a-octahydrobenzo[h]quinazolin-2-amine] | –
61.7 | – | Nc1nc(N2C[C@H]3CNC[C@H]32)c2ccc3c(c2n1)C1CCCCC1O3 (stereo partly drawn) [Example 8, 4-[(1R,5S)-3,6-diazabicyclo[3.2.0]hept-6-yl]-7a,8,9,10,11,11a-hexahydro[1]benzofuro[2,3-h]quinazolin-2-amine] | –
91.2 | – | Nc1nc2c(c(N3C[C@H]4CCCN[C@H]4C3)n1)CCCC1C3C=CC(CC3)C21 (relative stereo) [Example 24, 4-cis-octahydro-6H-pyrrolo[3,4-b]pyridin-6-yl-6,7,7a,8,11,11a-hexahydro-5H-8,11-ethanobenzo[6,7]cyclohepta[1,2-d]pyrimidin-2-amine] | –
89.1 | – | Nc1nc2c(c(N3C[C@H]4CCCN[C@H]4C3)n1)CCCC1C3CCC(CC3)C21 (relative stereo) [Example 27, 4-cis-octahydro-6H-pyrrolo[3,4-b]pyridin-6-yl-6,7,7a,8,9,10,11,11a-octahydro-5H-8,11-ethanobenzo[6,7]cyclohepta[1,2-d]pyrimidin-2-amine] | –
60.3 | – | Nc1nc2c(c(N3CCNCC3)n1)CCCC1C3C=CC(CC3)C21 (stereo not shown) [Example 26, 4-piperazin-1-yl-6,7,7a,8,11,11a-hexahydro-5H-8,11-ethanobenzo[6,7]cyclohepta[1,2-d]pyrimidin-2-amine] | –
1.5 | 0.9 | CNC1CN(c2nc(N)nc3c2CC[C@@H]2CCCC[C@@H]32)C1.O=C(O)C(F)(F)F.O=C(O)C(F)(F)F (relative stereo) [Example 14, trans-4-[3-(methylamino)azetidin-1-yl]-5,6,6a,7,8,9,10,10a-octahydrobenzo[h]quinazolin-2-amine bis(trifluoroacetate)] | –
1.2 | – | Nc1nc2c(c(N3CC[C@@H](N)C3)n1)CC[C@@H]1CCCC[C@@H]21 (mixture of isomers) [Example 17, trans-4-[(3R)-3-aminopyrrolidin-1-yl]-5,6,6a,7,8,9,10,10a-octahydrobenzo[h]quinazolin-2-amine] | –
25 | – | CN1CCN(c2nc(N)nc3c2CCC2=C3C3CCCCC3O2)CC1 (stereo not shown) [Example 6, 4-(4-methylpiperazin-1-yl)-5,6,7a,8,9,10,11,11a-octahydro[1]benzofuro[2,3-h]quinazolin-2-amine] | –
3.0 | – | CNC1CN(c2nc(N)nc3c2CC[C@@H]2CCCC[C@H]32)C1 (relative stereo) [Example 22, cis-4-[3-(methylamino)azetidin-1-yl]-5,6,6a,7,8,9,10,10a-octahydrobenzo[h]quinazolin-2-amine] | –
24.0 | 5.6 | CN[C@@H]1CCN(c2nc(N)nc3c2CCCC2C4C=CC(CC4)C32)C1 (stereo partly drawn) [Example 25, 4-[(3R)-3-(methylamino)pyrrolidin-1-yl]-6,7,7a,8,11,11a-hexahydro-5H-8,11-ethanobenzo[6,7]cyclohepta[1,2-d]pyrimidin-2-amine] | –
4.1 | 12.6 | Nc1nc(N2CC[C@@H](N)C2)c2ccc3c(c2n1)C1CCCCC1O3 (stereo partly drawn) [Example 7, 4-[(3R)-3-aminopyrrolidin-1-yl]-7a,8,9,10,11,11a-hexahydro[1]benzofuro[2,3-h]quinazolin-2-amine] | –
2000 | – | Nc1nc2c(c(N3CCCN(C4CCC4)CC3)n1)CCC1=C2C2CCCCC2O1 (stereo not shown) [Example 11, 4-(4-cyclobutyl-1,4-diazepan-1-yl)-5,6,7a,8,9,10,11,11a-octahydro[1]benzofuro[2,3-h]quinazolin-2-amine] | –
3.0 | – | CCNC1CN(c2nc(N)nc3c2CC[C@@H]2CCCC[C@H]32)C1 (relative stereo) [Example 23, cis-4-[3-(ethylamino)azetidin-1-yl]-5,6,6a,7,8,9,10,10a-octahydrobenzo[h]quinazolin-2-amine] | –
1.6 | – | CN[C@@H]1CCN(c2nc(N)nc3c2CC[C@@H]2CCCC[C@H]32)C1 (mixture of isomers) [Example 19, cis-4-[(3R)-3-(methylamino)pyrrolidin-1-yl]-5,6,6a,7,8,9,10,10a-octahydrobenzo[h]quinazolin-2-amine] | –
16 | – | CN1CCCN(c2nc(N)nc3c2CCC2=C3C3CCCCC3O2)CC1 (stereo not shown) [Example 5, 4-(4-methyl-1,4-diazepan-1-yl)-5,6,7a,8,9,10,11,11a-octahydro[1]benzofuro[2,3-h]quinazolin-2-amine] | –
1.4 | – | Nc1nc2c(c(N3CC[C@@H](N)C3)n1)CC[C@@H]1CCCC[C@H]21 (mixture of isomers) [Example 20, cis-4-[(3R)-3-aminopyrrolidin-1-yl]-5,6,6a,7,8,9,10,10a-octahydrobenzo[h]quinazolin-2-amine] | –

SMILES | Potency [1] [nM] | Ki [2, 3] [nM] | Ki [2] [nM]
Nc1nc2c(c(N3C[C@H]4CCCN[C@H]4C3)n1)CC[C@@H]1CCCC[C@H]21 (relative stereo) [Example 21, cis-4-[cis-octahydro-6H-pyrrolo[3,4-b]pyridin-6-yl]-5,6,6a,7,8,9,10,10a-octahydrobenzo[h]quinazolin-2-amine] | 8.3 | – | –
Nc1nc2c(c(N3CC4CCCNC4C3)n1)CCC1CCCCC21 (stereo not drawn) [Example 18, trans-4-[cis-octahydro-6H-pyrrolo[3,4-b]pyridin-6-yl]-5,6,6a7,8,9,10,10a-octahydrobenzo[h]quinazolin-2-amine] | 4.9 | – | 2.6
